In ChEMBL document CHEMBL1201862, “PubChem BioAssay data set” (2004):
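The compound was tested at five concentrations on cells cultured in 96-well plates, with a 48-hour exposure period. Abbreviation: GI50, concentration required for 50% inhibition of growth.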 Activity calls are given as the source filed them. Rule as the data show it: active = GI50 up to about 1.1 µM and inactive = higher. Non-standard residues stand in square brackets, D forms with d. Residues, ends and D or L forms follow the SMILES beside them. Ava = NCCCCC(=O)O; Mpa = O=C(O)CCS

How the values were obtained:
Experiment in all cases: NCI-60 cell line screen, 48 h
[1] = tested on: SNB-75
[2] = tested on: UACC-257
[3] = tested on: SK-OV-3
[4] = tested on: RPMI-8226
[5] = tested on: UACC-62
[6] = tested on: SK-MEL-5
[7] = tested on: ACHN
[8] = tested on: IGROV-1
[9] = tested on: SK-MEL-28
[10] = tested on: SF-295
[11] = tested on: SNB-19
[12] = tested on: HCT-15
[13] = tested on: 786-0
[14] = tested on: HOP-62
[15] = tested on: Malme-3M
[16] = tested on: CAKI-1
[17] = tested on: A549
[18] = tested on: KM-20L2
[19] = tested on: SR
[20] = tested on: MDA-MB-435

Row | Structure (SMILES) | GI50 [1] | GI50 [2] | GI50 [3] | GI50 [4] | GI50 [5] | GI50 [6] | GI50 [7] | GI50 [8] | GI50 [9] | GI50 [10] | GI50 [11] | GI50 [12] [µM] | GI50 [13] | GI50 [14] | GI50 [15] | GI50 [16] | GI50 [17] | GI50 [18] | GI50 [19] | GI50 [20]
1 | COc1ccc(C(Cc2cc(OC)c(OC)c(OC)c2)C(=O)O)cc1 (stereo not drawn) | 22.8 µM (inactive) | 54.3 µM (inactive) | 52.6 µM (inactive) | 55.8 µM (inactive) | 31.2 µM (inactive) | 25.9 µM (inactive) | > 100 µM (inactive) | 76.2 µM (inactive) | 56.6 µM (inactive) | 26.1 µM (inactive) | 62.7 µM (inactive) | 43.5 | 71.8 µM (inactive) | > 100 µM (inactive) | 74 µM (inactive) | 64.1 µM (inactive) | 60 µM (inactive) | 56 µM (inactive) |  | 
2 | CN1CCc2ccccc2C(C(=O)c2ccc3c(c2)OCO3)C1=O (stereo not drawn) | > 100 µM (inactive) | 90.2 µM (inactive) | > 100 µM (inactive) | > 100 µM (inactive) | > 100 µM (inactive) | 53.3 µM (inactive) | > 100 µM (inactive) | > 100 µM (inactive) | > 100 µM (inactive) |  | > 100 µM (inactive) | > 100 | > 100 µM (inactive) | > 100 µM (inactive) | > 100 µM (inactive) | > 100 µM (inactive) | > 100 µM (inactive) | > 100 µM (inactive) |  | 
3 | COc1ccc(NC(=O)c2oc3cc(O)ccc3c(=O)c2C)c([N+](=O)[O-])c1 | > 100 µM (inactive) | > 100 µM (inactive) | > 100 µM (inactive) |  | > 100 µM (inactive) | > 100 µM (inactive) | > 100 µM (inactive) | > 100 µM (inactive) | > 100 µM (inactive) | > 100 µM (inactive) | > 100 µM (inactive) | > 100 | > 100 µM (inactive) | > 100 µM (inactive) | > 100 µM (inactive) | > 100 µM (inactive) | > 100 µM (inactive) | > 100 µM (inactive) | > 100 µM (inactive) | 
4 | Cc1c(CC/C(=N\Nc2ccc([N+](=O)[O-])cc2[N+](=O)[O-])c2ccccc2)c2ccccc2n1C | > 56.1 µM (inactive) | > 100 µM (inactive) | > 100 µM (inactive) | 20.7 µM (inactive) | > 100 µM (inactive) | > 100 µM (inactive) | > 100 µM (inactive) | > 100 µM (inactive) | > 100 µM (inactive) | > 100 µM (inactive) | > 94.4 µM (inactive) | > 100 | > 100 µM (inactive) | > 100 µM (inactive) | > 100 µM (inactive) | > 100 µM (inactive) | > 100 µM (inactive) | > 100 µM (inactive) |  | 
5 | CCCCCCCCCCCCCC(=O)NCC(OCC)OCC | > 100 µM (inactive) | > 100 µM (inactive) | > 100 µM (inactive) |  | > 100 µM (inactive) | > 100 µM (inactive) | > 100 µM (inactive) | > 100 µM (inactive) | > 100 µM (inactive) | > 100 µM (inactive) | > 100 µM (inactive) | > 100 | > 100 µM (inactive) | > 100 µM (inactive) | > 100 µM (inactive) |  | > 100 µM (inactive) | > 100 µM (inactive) |  | 
6 | N#CC(C(=N/NC(N)=S)/C(=N\NC(N)=S)C(C#N)c1ccccc1)c1ccccc1 (stereo not drawn) | > 10 µM (inactive) | > 10 µM (inactive) | > 10 µM (inactive) | > 10 µM (inactive) | > 10 µM (inactive) |  | > 10 µM (inactive) |  | > 10 µM (inactive) | > 10 µM (inactive) | > 10 µM (inactive) | > 10 | > 10 µM (inactive) | > 10 µM (inactive) | > 10 µM (inactive) |  | > 10 µM (inactive) | > 10 µM (inactive) |  | 
7 | CCOC(=O)NNC(=O)NC12CC3CC(CC(C3)C1)C2 | > 100 µM (inactive) | > 100 µM (inactive) | > 100 µM (inactive) |  | > 100 µM (inactive) | > 100 µM (inactive) | > 100 µM (inactive) | > 100 µM (inactive) | > 100 µM (inactive) | > 100 µM (inactive) | > 100 µM (inactive) | > 100 | > 100 µM (inactive) | > 100 µM (inactive) | > 100 µM (inactive) | > 100 µM (inactive) | > 100 µM (inactive) | > 100 µM (inactive) |  | 
8 | CC(NC(=O)CCS)C(=O)NC(C)C(=O)NC(Cc1c[nH]c2ccccc12)C(=O)NC(Cc1c[nH]cn1)C(=O)NC(CO)C(=O)NC(Cc1c[nH]c2ccccc12)C(=O)NCCCCC(=O)NC(C)C(=O)NC(CCC(N)=O)C(=O)NC(CCCCN)C(=O)NC(C)C(=O)NC(CCCNC(=N)N)C(=O)NC(CCCCN)C(N)=O (stereo not drawn) ([Mpa]AAWHSW[Ava]AQKARK-NH2; configuration not given here) | > 100 µM (inactive) | 24.2 µM (inactive) | > 100 µM (inactive) | > 100 µM (inactive) | 22.5 µM (inactive) | 35.6 µM (inactive) | > 100 µM (inactive) | > 100 µM (inactive) | 34.7 µM (inactive) | > 100 µM (inactive) | > 100 µM (inactive) | > 100 | 31.6 µM (inactive) | > 100 µM (inactive) | 19 µM (inactive) | 44.2 µM (inactive) | > 100 µM (inactive) |  | 87.5 µM (inactive) | 45.9 µM (inactive)
9 | O=C1c2cc(Cl)ccc2-n2cnnc2C2CSCN12 (stereo not drawn) | > 100 µM (inactive) | > 100 µM (inactive) | > 100 µM (inactive) | > 100 µM (inactive) | > 100 µM (inactive) | > 100 µM (inactive) | > 100 µM (inactive) | > 100 µM (inactive) | > 100 µM (inactive) | > 100 µM (inactive) | > 100 µM (inactive) | > 100 | > 100 µM (inactive) | > 100 µM (inactive) | > 100 µM (inactive) | 4.54 µM (inactive) | > 100 µM (inactive) |  | 75.2 µM (inactive) | > 100 µM (inactive)
10 | O=C(CC(=O)c1ccncc1)c1ccccc1 | > 63.8 µM (inactive) | > 85.7 µM (inactive) | > 100 µM (inactive) | 52.5 µM (inactive) | 88.7 µM (inactive) | 90.4 µM (inactive) | 67.6 µM (inactive) | > 100 µM (inactive) | > 100 µM (inactive) | > 83.8 µM (inactive) | > 100 µM (inactive) | 35.9 | 66.4 µM (inactive) | 71.8 µM (inactive) | 40.3 µM (inactive) | > 100 µM (inactive) | > 100 µM (inactive) |  | 22.1 µM (inactive) | > 100 µM (inactive)
11 | CN1C(=O)c2cccc3cc([N+](=O)[O-])cc(c23)C1=O | > 10 µM (inactive) | > 10 µM (inactive) | > 10 µM (inactive) | > 10 µM (inactive) | > 10 µM (inactive) | > 10 µM (inactive) | > 10 µM (inactive) | > 10 µM (inactive) | > 10 µM (inactive) | > 10 µM (inactive) | > 10 µM (inactive) | > 10 | > 10 µM (inactive) | > 10 µM (inactive) | > 10 µM (inactive) | > 10 µM (inactive) | > 10 µM (inactive) |  | > 10 µM (inactive) | > 10 µM (inactive)
12 | Nc1ncnc2c1ncn2CCCC(c1ccccc1)P(=O)(O)O (stereo not drawn) | > 100 µM (inactive) | > 100 µM (inactive) | > 100 µM (inactive) |  | > 100 µM (inactive) | > 100 µM (inactive) | > 100 µM (inactive) | > 100 µM (inactive) | > 100 µM (inactive) | > 100 µM (inactive) | > 100 µM (inactive) | > 100 | > 100 µM (inactive) |  | > 100 µM (inactive) | 17 µM (inactive) | > 100 µM (inactive) | > 100 µM (inactive) | > 100 µM (inactive) | 
13 | COC(=O)c1c(C)cccc1C1CN=NC12Cc1c(C)cccc1C2=O (stereo not drawn) | 64.1 µM (inactive) | 43.4 µM (inactive) | > 100 µM (inactive) | 46.5 µM (inactive) | 40.1 µM (inactive) | 53 µM (inactive) | 79.3 µM (inactive) | > 100 µM (inactive) | > 100 µM (inactive) | 51.2 µM (inactive) | > 100 µM (inactive) | 88.1 | > 100 µM (inactive) | > 100 µM (inactive) | 91.4 µM (inactive) | > 100 µM (inactive) | 82.6 µM (inactive) |  | > 100 µM (inactive) | 39.8 µM (inactive)
14 | CC(C)CCNC(=O)c1ccc(CNC(=O)/C=C/c2ccc3c(c2)-c2ccccc2C3)cc1 | 23.7 µM (inactive) | 95.9 µM (inactive) | 57.1 µM (inactive) | 44 µM (inactive) | > 100 µM (inactive) | 36.9 µM (inactive) | 57.4 µM (inactive) | 58.7 µM (inactive) | 34 µM (inactive) | 30.7 µM (inactive) | > 100 µM (inactive) | 41.5 | 33.9 µM (inactive) | 19.1 µM (inactive) | 17.3 µM (inactive) | 26.5 µM (inactive) | 41.5 µM (inactive) |  | 34.9 µM (inactive) | 52.5 µM (inactive)
15 | CSc1ccc2c(cc1=O)[C@@H](NC(=O)c1ccc(F)cc1)CCc1cc(O)c(O)c(O)c1-2 | > 100 µM (inactive) | > 100 µM (inactive) | > 100 µM (inactive) | > 100 µM (inactive) | > 100 µM (inactive) | > 100 µM (inactive) | > 100 µM (inactive) | > 100 µM (inactive) | > 100 µM (inactive) | > 100 µM (inactive) | > 100 µM (inactive) | > 100 | > 100 µM (inactive) | > 100 µM (inactive) | > 100 µM (inactive) | > 100 µM (inactive) | > 100 µM (inactive) | > 100 µM (inactive) |  | 
